US20230201192A1, “METHODS AND MATERIALS FOR ASSESSING AND TREATING CANCER” (Mayo Foundation for Medical Education and Research, priority 2020, published 2023)

Tests used:
[1] = tested on: PDX tumor models for RCC, HCC, melanoma and CCA; test: PDTX tumor models in Nod Scid gamma mice; format: in vivo, NSG mice; details: oral, 180 parts per million in chow=10 mg/kg daily; treatment from ~75 mm^3; models predicted responsive by IHC
Procedure: Animal models and drug testing: PDTX tumors (5×5×5-mm) were implanted into Nod Scid gamma mice with treatment (vehicle control or oral SSI-4) begun when tumors were approximately ˜75-100 mm^3. Tumor volume, food consumption and body weight were monitored twice weekly. Tumor tissue was collected and processes for IHC.
In FIG. 10, PDTX tumor models for HCC, ccRCC, CCA, and melanoma respond to SSI-4 or not correlate with predictions shown in FIG. 10. PDTX tumors were grown in the right flank of Nod Scid Gamma (NSG) mice with treatment beginning when tumors reach ˜75 mm^3 with the start of SSI-4 oral treatment. Tumor tissues were formalin fixed and paraffin block slides were stained for SCD1, c-Myc, LDHA, p-Src by standard IHC protocols for protein expression. PDTX models tested include RCC, HCC, melanoma, and CCA. * indicates statistical difference of SSI-4 from same day treatment control (P<0.05). Number in red predicts no response to SSI-4 (SCD1 inhibitor). […] Cells resistant to SSI-4 may have low or no cMyc and no or low LDHA with elevated p-Src. Cell with elevated cMyc and LDHA and low p-Src are responsive to SSI-4 or SCD1 inhibition.

[2] = tested on: SSI-4 sensitive HCC cells; test: Soft agar colony formation; format: cell-based; details: 1 micromolar SSI-4
Procedure: Soft agar cultures were prepared by diluting 2× growth medium 1:1 in 1.5% SeaplaqueGTG agarose (Lonza), with 500 cells/plate in 60-mm culture dishes (Genesee Scientific). Colonies were stained with Giemsa (LabChem Inc.) and counted after 3 weeks.
In FIG. 3A, cells representative of HCC (top row), RCC (middle row) and MM (bottom row) are shown. In FIG. 3B, sensitive HCC cells are treated with 1 micromolar SSI-4 showing inhibition of colony formation (i.e. growth). In FIG. 3C, colonies are quantitated comparing control to SSI-4 treated cells. […] Each treatment group was repeated in triplicate. Colony number is the mean+/−standard deviation (S.D.). Thus, soft agar assay can independently predict response to SCD1 inhibitor but requires fresh live tumor tissue and laboratories such as the Copland laboratory that can access tissues, process tissues and perform the assays.

[3] = tested on: BIP, cleaved PARP, cleaved caspase 3, c-Myc, cyclin D1, survivin; test: Western blot analysis of ER stress, apoptosis and c-Myc signaling; format: cell-based
Procedure: HCC, RCC, CCA, and MM cell lines (2000 cells/well) were incubated with DMSO control (1:1000), 500 ug/ml bovine serum albumin-oleic acid (BSA-OA) and/or 1 μM SSI-4 for three days and determined for cell viability (FIG. 4A). Nonresponsive cell lines are closed triangle and responsive are open triangles. […] Specificity for blockade of SCD1 is shown by rescue with the enzyme end product, oleic acid (OA).
Western blot analysis: Cell protein extracts were prepared using RIPA lysis buffer containing 50 mmol/L Tris, 5 mmol/L EDTA, 150 mmol/L NaCl, 0.1% SDS, 0.5% deoxycholate, 1% NP40, protease inhibitor cocktail, and phosphatase inhibitor. Tissue protein extracts were prepared from frozen samples using 1% SDS in 50 mmol/L pH 8.0 Tris buffer containing protease inhibitor cocktail and phosphatase inhibitor with brief sonication on ice. Electrophoresis, transfer, blocking, and antibody preparations were performed. The following primary antibodies were included: SCD1, c-Myc, pSrc Y418, Src, b-actin, PARP, cleaved caspase 3, survivin, cyclin D1. Secondary species-specific horseradish peroxidase-labeled antibodies were applied, and Supersignal Chemiluminescent Kit was used to perform detection.
In FIG. 6, c-Myc protein expression correlates with SCD1 sensitive cell lines. SCD1 protein is expressed in most cancer cells (HCC and ccRCC) while c-Myc protein expression appears to be expressed in SSI-4 sensitive cells.

[4] = tested on: hepatocellular carcinoma (HCC), cholangiocarcinoma (CCA), clear cell renal cell carcinoma (ccRCC) and melanoma (MM) cell lines; test: Cell proliferation / viability assay (CyQuant or Coulter count), SSI-4 dose response; format: cell-based; details: responsive cell lines; 1 μM SSI-4 + 500 ug/ml BSA-OA, three days
Procedure: (§1) Cells were seeded at 5,000 cells/well in clear-bottom 96-well plates in triplicate. Drug treatment was applied at 1:1000 in reduced serum conditions (3%). After 72 hours, cells were washed with PBS, and stored at −80° C. prior to analysis using CyQuant® Proliferation Analysis Kit (Invitrogen) per manufacturers' protocol for relative fluorescence units. Alternatively, cells were plated 2×10^5/ well in 12-well plates (Genesee Scientific) in triplicate prior to drug treatment. After 120-hour treatment, cell number was established using a Coulter Particle Counter (Beckman). Oleic acid-albumin (Sigma Aldrich) was added to media at 5 μM, and was applied adjuvant to drug treatment. Drug stocks were prepared in DMSO (Sigma) at 1000×. IC50 dosing per cell line was calculated as described elsewhere (von Roemeling et al., Oncotarget, 9:3-20 (2018)).
(§2) SCD1 expression was examined in cell lines. Cells were treated with 1 μM SSI-4 for 3 days and a viability assay was used to identify SSI-4 sensitive and insensitive cell lines. Certain cell lines were also treated with varied doses (0.01-10,000 nM) of SSI-4 for 3 days. Not all cells that express SCD1 are sensitive to a SCD1 inhibitor (FIG. 1 and FIG. 2).

[5] = as above; format: cell-based; details: 72 h; responsive HCC, CCA, ccRCC and MM cell lines; dose response 0.01-10,000 nM, 3 day exposure
Procedure: as §1, §2

[6] = tested on: Unsaturated fatty acids (UFAs); test: Unsaturated fatty acids measured in media of cells; format: cell-based; details: SSI-4 sensitive cells, 1 μM SSI-4
[7] = tested on: c-Myc silenced SSI-4 responsive cells / c-Myc overexpressing nonresponsive cells; test: Cell viability after c-Myc silencing (shRNA) or c-Myc overexpression; format: cell-based
Procedure: c-Myc gene silencing (shRNA) and c-Myc over-expression: Lentivirus shRNA pLKO.1 constructs were used to make self-inactivating shRNA lentiviruses for human c-Myc and a nontarget random scrambled sequence control. Transfection reagents Lipofectamine 2000 and ViraPower were used to generate lentiviruses using HEK293FT viral progenitor cells. Cells were incubated with lentivirus plus […] polybrene for 24 hours before clonal selection with puromycin.
In FIG. 8, overexpression of c-Myc in nonresponsive SSI-4 cells convert cells to SSI-4 sensitive (growth inhibited) cells. c-Myc mRNA expression is ˜2-fold elevated in cells infected with a c-Myc expression plasmid (FIG. 8A).

[8] = tested on: endoplasmic reticulum (ER) stress induced proteins; test: mRNA expression of ER stress induced proteins by qPCR; format: cell-based; details: sensitive cells, 1 μM SSI-4 for 48 hours, fold change to untreated cells

For `CNC(=O)c1ccnc(NC(=O)N2CCC(Oc3ccccc3Cl)CC2)c1` [SSI-4, 2-{[4-(2-Chlorophenoxy)piperidine-1-carbonyl]amino}-N-methylpyridine-4-carboxamide], the “tumor response (tumor volume)” value [1] was “respond”, the “colony formation on soft agar” value [2] was “blocked colony formation” and the “c-Myc and c-Myc regulated genes (cyclin D1 and survivin) protein expression” value ([3]; 1 μM SSI-4, restored by oleic acid BSA) was “down-regulated”. The “ER stress (BIP protein, Western)” value ([3]; HCC cell lines) was “upregulation of BIP protein”, the “apoptosis (cleaved PARP and cleaved caspase 3, Western)” value ([3]; HCC cell lines) was “Apoptotic cell death is induced” and the “cMyc protein (Western)” value ([3]; HCC cell lines, rescue by OA) was “down-regulates cMyc protein”. For the same compound, the “rescue of SSI-4 inhibition of cell proliferation by oleic acid (BSA-OA)” value [4] was “complete rescue”, the IC50 [5] was 1 to 40 nM and the “unsaturated fatty acids (UFAs)” value [6] was “suppressed UFAs to levels equal to non-responsive cells”. The “sensitivity of cells silenced for c-Myc to SSI-4 treatment” value ([7]; SSI-4 responsive cells with c-Myc shRNA) was “become insensitive”, the inhibition at 1 µM ([7]; c-Myc expressing (previously nonresponsive) cells, 1 uM SSI-4, read-out: enhanced growth inhibition) was 33 to 45% and the “mRNA expression for ER stress induced proteins” value [8] was “became elevated”.
